Values quoted from earlier work, collected in patent publication US20240325349A1, “LIQUID PHARMACEUTICAL FORMULATIONS OF TOPIRAMATE” (TaP Pharmaceuticals AG, priority 2023, published 2024).
Where two headings read alike, the source gives them in different places.

In the case of CC1(C)O[C@@H]2[C@@H](CO[C@@]3(COS(N)(=O)=O)OC(C)(C)O[C@@H]23)O1 [Topiramate, 2,3:4,5-Di-O-isopropylidene-β-D-fructopyranose sulfamate], the “Topiramate Solubility” value (in Aconon C-30 (oil)) is listed as 50.7 ± 3.5 mg/mL, the “Topiramate Solubility” value (in Capmul MCM C-8 (oil)) is listed as 62.5 ± 3.9 mg/mL and the “Topiramate Solubility” value (in Capmul MCM EP (oil)) is listed as 61.4 ± 3.8 mg/mL. For the same compound, the “Topiramate Solubility” value (in Captex 355 (oil)) was 14.5 ± 0.8 mg/mL, the “Topiramate Solubility” value (in Carbitol (cosurfactant)) was 355.6 ± 29.2 mg/mL and the “Topiramate Solubility” value (in Cremophor EL (surfactant)) was 78 ± 2.1 mg/mL. The “Topiramate Solubility” value (in Cremophor RH-40 (surfactant)) was 46 ± 2.7 mg/mL, the “Topiramate Solubility” value (in Ethyl Oleate (oil)) was 6.7 ± 0.3 mg/mL and the “Topiramate Solubility” value (in IPM (oil)) was 6.7 ± 0.4 mg/mL. For the same compound, the “Topiramate Solubility” value (in Oleic Acid (oil)) was 0.1 ± 0.1 mg/mL, the “Topiramate Solubility” value (in PEG 200 (cosurfactant)) was 169.6 ± 2.3 mg/mL and the “Topiramate Solubility” value (in PEG 400 (cosurfactant)) was 148.9 ± 3.5 mg/mL. For the same compound, the “Topiramate Solubility” value (in Sesfol 218 (oil)) was 53.6 ± 2.6 mg/mL, the “Topiramate Solubility” value (in Tween 20 (surfactant)) was 142.8 ± 6.4 mg/mL and the “Topiramate Solubility” value (in Tween 80 (surfactant)) was 84.2 ± 3^ mg/mL.
